Legend:
[1] = target: Human α2δ-1 subunit of Cav2.2 calcium channel (Homo sapiens, UniProt P54289); assay: Human α2δ-1 subunit of Cav2.2 calcium channel assay ([3H]-gabapentin binding); settings: binding to the α2δ-1 subunit of voltage-gated calcium channels expressed as Ki; + also covers inhibition between 1% and 50%
Protocol: Biological Activity Pharmacological Study Human α2δ-1 Subunit of Cav2.2 Calcium Channel Assay
Human α2δ-1 enriched membranes (2.5 μg) were incubated with 15 nM of radiolabeled [^3H]-Gabapentin in assay buffer containing Hepes-KOH 10 mM, pH 7.4. NSB (non specific binding) was measured by adding 10 μM pregabalin. The binding of the test compound was measured at either one concentration (% inhibition at 1 or 10 μM) or five different concentrations to determine affinity values (Ki). After 60 min incubation at 27° C., binding reaction was terminated by filtering through Multiscreen GF/C (Millipore) presoaked in 0.5% polyethyleneimine in Vacuum Manifold Station, followed by 3 washes with ice-cold filtration buffer containing 50 mM Tris-HCl, pH 7.4. Filter plates were dried at 60° C. for 1 h and 30 μL of scintillation cocktail were added to each well before radioactivity reading. Readings were performed in a Trilux 1450 Microbeta radioactive counter (Perkin Elmer).

Human σ1 receptor = target: T1, Human σ1 receptor (Homo sapiens, UniProt Q99720); assay: Human σ1 receptor radioligand assay ([3H](+)-pentazocine binding, transfected HEK-293 membranes); settings: binding to σ1 receptor expressed as Ki; + also covers inhibition between 1% and 50%; read-out: σ-1 binding
T1 construct: expressed in transfected cells; host or cells: HEK-293
Protocol: Human σ1 Receptor Radioligand Assay
Transfected HEK-293 membranes (7 μg) were incubated with 5 nM of [^3H](+)-pentazocine in assay buffer containing Tris-HCl 50 mM at pH 8. NBS (non-specific binding) was measured by adding 10 μM haloperidol. The binding of the test compound was measured at either one concentration (% inhibition at 1 or 10 μM) or five different concentrations to determine affinity values (Ki). Plates were incubated at 37° C. for 120 minutes. After the incubation period, the reaction mix was then transferred to MultiScreen HTS, FC plates (Millipore), filtered and plates were washed 3 times with ice-cold 10 mM Tris-HCL (pH7.4). Filters were dried and counted at approximately 40% efficiency in a MicroBeta scintillation counter (Perkin-Elmer) using EcoScint liquid scintillation cocktail.

T1 sequence (Q99720 whole entry): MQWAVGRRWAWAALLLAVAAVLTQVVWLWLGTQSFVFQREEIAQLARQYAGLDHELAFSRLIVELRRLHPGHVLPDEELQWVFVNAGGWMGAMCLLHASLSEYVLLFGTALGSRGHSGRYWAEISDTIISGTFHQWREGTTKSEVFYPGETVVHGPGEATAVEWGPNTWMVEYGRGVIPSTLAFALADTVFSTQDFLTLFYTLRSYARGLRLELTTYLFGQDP
Sequence of Human α2δ-1 subunit of Cav2.2 calcium channel (P54289 25-1103): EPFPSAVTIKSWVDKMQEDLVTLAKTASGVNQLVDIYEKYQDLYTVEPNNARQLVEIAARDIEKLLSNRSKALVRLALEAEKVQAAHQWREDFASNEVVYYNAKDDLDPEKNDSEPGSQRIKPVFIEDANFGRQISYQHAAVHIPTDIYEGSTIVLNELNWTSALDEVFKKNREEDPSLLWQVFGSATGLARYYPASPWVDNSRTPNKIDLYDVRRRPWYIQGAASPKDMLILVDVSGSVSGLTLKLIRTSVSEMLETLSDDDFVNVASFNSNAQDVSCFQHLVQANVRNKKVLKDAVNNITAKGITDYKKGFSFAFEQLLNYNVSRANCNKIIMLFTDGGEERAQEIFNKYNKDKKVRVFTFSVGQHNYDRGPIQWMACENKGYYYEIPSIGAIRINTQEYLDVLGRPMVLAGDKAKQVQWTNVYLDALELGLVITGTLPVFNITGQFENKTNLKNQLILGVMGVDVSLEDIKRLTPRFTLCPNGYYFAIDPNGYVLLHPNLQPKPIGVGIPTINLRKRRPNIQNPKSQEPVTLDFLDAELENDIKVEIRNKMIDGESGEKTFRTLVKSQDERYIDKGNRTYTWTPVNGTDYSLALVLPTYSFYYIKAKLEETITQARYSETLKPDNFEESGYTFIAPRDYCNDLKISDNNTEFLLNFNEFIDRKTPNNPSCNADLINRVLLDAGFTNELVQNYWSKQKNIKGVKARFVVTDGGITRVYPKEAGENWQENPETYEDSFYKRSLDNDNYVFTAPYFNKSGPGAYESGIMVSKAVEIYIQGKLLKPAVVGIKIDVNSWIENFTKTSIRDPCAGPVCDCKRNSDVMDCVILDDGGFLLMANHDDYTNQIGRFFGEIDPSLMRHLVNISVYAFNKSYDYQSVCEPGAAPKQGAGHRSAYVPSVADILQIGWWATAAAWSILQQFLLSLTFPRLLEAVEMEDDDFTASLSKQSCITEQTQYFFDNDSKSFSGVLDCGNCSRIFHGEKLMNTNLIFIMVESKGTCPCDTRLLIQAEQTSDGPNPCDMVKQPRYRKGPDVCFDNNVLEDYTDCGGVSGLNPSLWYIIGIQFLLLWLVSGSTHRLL

Ki [1] [nM]	Ki (Human σ1 receptor) [nM]	SMILES
500 to 5000	> 1000	CCc1nn2c(C3CCCN(Cc4ccccc4)C3)ccnc2c1-c1ccncc1 (centres unmarked) [Example 60, 7-(1-Benzylpiperidin-3-yl)-2-ethyl-3-(pyridin-4-yl)pyrazolo[1,5-a]pyrimidine]
> 5000	> 1000	Cc1nn2c(C3CCCN(Cc4ccccc4)C3)ccnc2c1N (centres unmarked) [Example 90, 7-(1-Benzylpiperidin-3-yl)-2-methylpyrazolo[1,5-a]pyrimidin-3-amine]
500 to 5000	> 1000	Nc1ccc(-c2cc3nccc(C4CCCN(Cc5ccccc5)C4)n3n2)cn1 (centres unmarked) [Example 24, 5-(7-(1-Benzylpiperidin-3-yl)pyrazolo[1,5-a]pyrimidin-2-yl)pyridin-2-amine]
500 to 5000	< 500	Cc1nn2c(C3CCCN(Cc4ccc(Cl)cc4)C3)ccnc2c1CNCCN1CCOCC1 (centres unmarked) [Example 166, N-((7-(1-(4-Chlorobenzyl)piperidin-3-yl)-2-methylpyrazolo[1,5-a]pyrimidin-3-yl)methyl)-2-morpholinoethan-1-amine]
> 5000	500 to 1000	Clc1ccc(CN2CCCC(c3ccnc4cc(Br)nn34)C2)cc1 (centres unmarked) [Example 110, 2-Bromo-7-(1-(4-chlorobenzyl)piperidin-3-yl)pyrazolo[1,5-a]pyrimidine]
> 5000	> 1000	Cc1nn2c(C3CCCN(Cc4ccc(Cl)cc4)C3)ccnc2c1CN1CCNC(=O)C1 (centres unmarked) [Example 173]
> 5000	> 1000	Cc1nn2c(C3CCCN(Cc4ccccc4)C3)ccnc2c1COc1ccccc1 (centres unmarked) [Example 102, 7-(1-Benzylpiperidin-3-yl)-2-methyl-3-(phenoxymethyl)pyrazolo[1,5-a]pyrimidine]
500 to 5000	> 1000	c1ccc(CN2CCCC(c3ccnc4ccnn34)C2)cc1 (centres unmarked) [Example 2, 7-(1-Benzylpiperidin-3-yl)pyrazolo[1,5-a]pyrimidine]
500 to 5000	> 1000	COc1ncccc1-c1c(C)nn2c(C3CCCN(Cc4ccccc4)C3)ccnc12 (centres unmarked) [Example 43, 7-(1-Benzylpiperidin-3-yl)-3-(2-methoxypyridin-3-yl)-2-methylpyrazolo[1,5-a]pyrimidine]
500 to 5000	> 1000	Cc1nn2c(C3CCCN(Cc4ccc(F)c(F)c4)C3)ccnc2c1-c1ccncc1 (centres unmarked) [Example 125, 7-(1-(3,4-Difluorobenzyl)piperidin-3-yl)-2-methyl-3-(pyridin-4-yl)pyrazolo[1,5-a]pyrimidine]
500 to 5000	> 1000	CN[C@@H]1CCN(c2cc3nccc([C@@H]4CCCN(Cc5ccccc5)C4)n3n2)C1 [Example 84, (R)-1-(7-((R)-1-Benzylpiperidin-3-yl)pyrazolo[1,5-a]pyrimidin-2-yl)-N-methylpyrrolidin-3-amine]
500 to 5000	< 500	CC(=O)N1CCC(CNCc2c(C)nn3c(C4CCCN(Cc5ccccc5)C4)ccnc23)CC1 (centres unmarked) [Example 180, 1-(4-((((7-(1-Benzylpiperidin-3-yl)-2-methylpyrazolo[1,5-a]pyrimidin-3-yl)methyl)amino)methyl)piperidin-1-yl)ethan-1-one]
> 5000	500 to 1000	Cc1nn2c(C3CCCN(Cc4ccc(Cl)cc4Cl)C3)ccnc2c1-c1ccncc1 (centres unmarked) [Example 124, 7-(1-(2,4-Dichlorobenzyl)piperidin-3-yl)-2-methyl-3-(pyridin-4-yl)pyrazolo[1,5-a]pyrimidine]
> 5000	> 1000	COc1ncccc1-c1cc2nccc(C3CCCN(Cc4cccc(Cl)c4)C3)n2n1 (centres unmarked) [Example 116, 7-(1-(3-Chlorobenzyl)piperidin-3-yl)-2-(2-methoxypyridin-3-yl)pyrazolo[1,5-a]pyrimidine]
500 to 5000	> 1000	CNCCN(C)c1cc2nccc(C3CCCN(Cc4ccccc4)C3)n2n1 (centres unmarked) [Example 81, N^1-(7-(1-Benzylpiperidin-3-yl)pyrazolo[1,5-a]pyrimidin-2-yl)-N^1,N^2-dimethylethane-1,2-diamine]

The remaining lines, values behind:

SMILES	Ki [1] [nM]	Ki (Human σ1 receptor) [nM]
Cc1nn2c([C@@H]3CCCN(Cc4ccc(F)cc4)C3)ccnc2c1CNCC1CCOCC1 [Example 207, (R)-1-(7-(1-(4-fluorobenzyl)piperidin-3-yl)-2-methylpyrazolo[1,5-a]pyrimidin-3-yl)-N-((tetrahydro-2H-pyran-4-yl)methyl)methanamine]	> 5000	< 500
COc1nn2c(C3CCCN(Cc4ccccc4)C3)ccnc2c1CNCC1CCOCC1 (centres unmarked) [Example 248, 1-(7-(1-Benzylpiperidin-3-yl)-2-methoxypyrazolo[1,5-a]pyrimidin-3-yl)-N-((tetrahydro-2H-pyran-4-yl)methyl)methanamine]	500 to 5000	500 to 1000
CC(=O)N1CCN(Cc2c(C)nn3c(C4CCCN(Cc5ccc(Cl)cc5)C4)ccnc23)CC1 (centres unmarked) [Example 174, 1-(4-((7-(1-(4-Chlorobenzyl)piperidin-3-yl)-2-methylpyrazolo[1,5-a]pyrimidin-3-yl)methyl)piperazin-1-yl)ethan-1-one]	500 to 5000	> 1000
CN(CCN)c1cc2nccc(C3CCCN(Cc4ccccc4)C3)n2n1 (centres unmarked) [Example 80, N^1-(7-(1-Benzylpiperidin-3-yl)pyrazolo[1,5-a]pyrimidin-2-yl)-N^1-methylethane-1,2-diamine]	500 to 5000	> 1000
Cc1ccccc1CN1CCCC(c2ccnc3c(-c4ccncc4)c(C)nn23)C1 (centres unmarked) [Example 75, 2-Methyl-7-(1-(2-methylbenzyl)piperidin-3-yl)-3-(pyridin-4-yl)pyrazolo[1,5-a]pyrimidine]	500 to 5000	> 1000
Cc1nn2c([C@@H]3CCCN(Cc4ccc(Cl)cc4)C3)ccnc2c1CN[C@@H](C)C1CCOCC1 [Example 225, (S)—N-((7-((R)-1-(4-chlorobenzyl)piperidin-3-yl)-2-methylpyrazolo[1,5-a]pyrimidin-3-yl)methyl)-1-(tetrahydro-2H-pyran-4-yl)ethan-1-amine]	> 5000	< 500
CCNCc1c(C)nn2c(C3CCCN(Cc4ccc(Cl)cc4)C3)ccnc12 (centres unmarked) [Example 155, N-((7-(1-(4-Chlorobenzyl)piperidin-3-yl)-2-methylpyrazolo[1,5-a]pyrimidin-3-yl)methyl)ethanamine]	500 to 5000	< 500
Cc1nn2c(C3CCCN(Cc4ccc(Cl)cc4)C3)ccnc2c1CNCc1ccc(CO)cc1 (centres unmarked) [Example 147, (4-((((7-(1-(4-Chlorobenzyl)piperidin-3-yl)-2-methylpyrazolo[1,5-a]pyrimidin-3-yl)methyl)amino)methyl)phenyl)methanol]	> 5000	< 500
Cc1nn2c(C3CCCN(Cc4ccc(Cl)cc4)C3)ccnc2c1-c1cncn1C (centres unmarked) [Example 138, 7-(1-(4-Chlorobenzyl)piperidin-3-yl)-2-methyl-3-(1-methyl-1H-imidazol-5-yl)pyrazolo[1,5-a]pyrimidine]	> 5000	> 1000
Cc1nn2c(C3CCCN(Cc4ccc(C#N)cc4)C3)ccnc2c1CNCC1CCOCC1 (centres unmarked) [Example 183, 4-((3-(2-Methyl-3-((((tetrahydro-2H-pyran-4-yl)methyl)amino)methyl)pyrazolo[1,5-a]pyrimidin-7-yl)piperidin-1-yl)methyl)benzonitrile]	> 5000	< 500
c1ccc(CN2CCCC(c3ccnc4cc(-c5cccnc5)nn34)C2)cc1 (centres unmarked) [Example 17, 7-(1-Benzylpiperidin-3-yl)-2-(pyridin-3-yl)pyrazolo[1,5-a]pyrimidine]	500 to 5000	500 to 1000
Cc1nn2c(C3CCCN(Cc4ccccc4)C3)ccnc2c1COCc1ccccc1 (centres unmarked) [Example 101, 3-((Benzyloxy)methyl)-7-(1-benzylpiperidin-3-yl)-2-methylpyrazolo[1,5-a]pyrimidine]	> 5000	< 500
Cc1nn2c([C@H]3CCCN(Cc4ccccc4F)C3)ccnc2c1CNCC1CCOCC1 [Example 239, (S)-1-(7-(1-(2-Fluorobenzyl)piperidin-3-yl)-2-methylpyrazolo[1,5-a]pyrimidin-3-yl)-N-((tetrahydro-2H-pyran-4-yl)methyl)methanamine]	> 5000	< 500
Cc1ccc(CNCc2c(C)nn3c(C4CCCN(Cc5ccc(Cl)cc5)C4)ccnc23)s1 (centres unmarked) [Example 150, 1-(7-(1-(4-Chlorobenzyl)piperidin-3-yl)-2-methylpyrazolo[1,5-a]pyrimidin-3-yl)-N-((5-methylthiophen-2-yl)methyl)methanamine]	500 to 5000	< 500
COCCCCNCc1c(C)nn2c(C3CCCN(Cc4ccc(Cl)cc4)C3)ccnc12 (centres unmarked) [Example 163, N-((7-(1-(4-Chlorobenzyl)piperidin-3-yl)-2-methylpyrazolo[1,5-a]pyrimidin-3-yl)methyl)-4-methoxybutan-1-amine]	< 500	< 500
Cc1nn2c(C3CCCN(Cc4ccccc4)C3)ccnc2c1Br (centres unmarked) [Example 10, 7-(1-Benzylpiperidin-3-yl)-3-bromo-2-methylpyrazolo[1,5-a]pyrimidine]	500 to 5000	< 500
